Data on 15 compounds can be found in patent US11299460B2, “MDM2 inhibitor, preparation method therefor, pharmaceutical composition thereof and use thereof” (SHANGHAI LONGWOOD BIOPHARMACEUTICALS CO., LTD., priority 2018, dated 2022).

A value given as a limit tells only on which side of the number the result lay.

The target in assay [1] is T1, GST-hMDM2 (aa1-188) (Homo sapiens, UniProt Q00987).
T1 construct: The amino acid residues 1-188 of human MDM2 were expressed as GST-hMDM2 fusion protein; made in house; host or cells: E. coli
Kind of assay: Homogeneous time resolved fluorometry (HTRF assay), hMDM2/p53 interaction. It is filed as binding. The note with it: HTRF analysis; GST-hMDM2 (aa1-188) / biotinylated-p53 (aa1-83). The protocol:
Residues 1-83 of human p53 were expressed as avitag <TM>-trxa-6×his fusion protein (biotinlabelled p53) in E. coli. Each protein was separated from cell homogenate by affinity chromatography.
Specifically, 10 μL GST-hMDM2 was incubated with 10 uL diluted compound in 10% DMSO for 20 minutes at room temperature. 20 μL biotinlabelled-p53 was added to the mixture of GST-hMDM2 and then incubated at room temperature for 60 min. A 10 μL detection buffer consisting of SA-XLent, anti-GST cavernous compound antibody and KF was added to the reaction solution consisting of GST-hMDM2, biotinlabelled-p53 and the compound and was placed at room temperature to achieve equilibrium and maintained for more than 4 h. The final concentration of DMSO in the reaction solution was 2%. Time resolved fluorescence were measured on a microplate multi label reader. The inhibition percentage was calculated relative to nutlin-3.

Assay [2] deals with p21 transcripts in SJSA-1 cells. In words: p21 assay (QRT-PCR of p21 transcripts in SJSA-1 cells). It is filed as cell-based, human. The note with it: cell assay (SJSA-1 cell), p21 induction, 7 hours incubation. From the text: Inhibition of the interaction between hMDM2 and p53 results in the activation of the p53 pathway via the stabilization and accumulation of p53. P53 activates the transcription of many genes, one of which is p21<WAFT/CIP1>. To evaluate the potency of hMDM2 inhibitors, quantitative reverse transcription polymerase chain reaction (QRT PCR) was used to measure the level of p21 transcripts of compound related cells relative to that of control cells treated with dimethyl sulfoxide (DMSO).
In the first day, SJSA-1 cells were inoculated into 100 μL growth medium (RPMI1640; 10 mM HEPES; 1 mM sodium pyruvate; 1× penicillin streptomycin glutamine (PSQ) and 10% FBS, all reagents were obtained from Invitrogen) at a density of 3×10^4 cells in 96-well cell culture plate. The cells were cultured overnight at 37° C. and 5% CO2 atmosphere.
In the second day, hMDM2 inhibitor was gradient diluted in DMSO(Sigma-Aldrich; St. Louis, Mo.). 5 μl of each compound dilution were added into 245 μl filtered assay medium (RPMI1640, 10% FBS, 10 mM HEPES, 1 mM sodium pyruvate and 1×PSQ). Or the assay was conducted with the presence of 10% human serum or 10% mouse serum, or without serum. Growth medium was removed from inoculated SJSA-1 cell culture plate and replaced by 100 μL assay medium for each well. Then 100 μL culture medium containing diluted inhibitor was added into each well to a final volume 200 μL. The final concentration of the compound was in the range of 0.049 μm-50 μm by dose titration with DMSO as control. The cells were incubated at 37° C. and 5% CO2 for 7 hours with the presence of inhibitor. When incubation was completed, growth medium was removed from cells and the plate was stored at −80° C.
In the third day, giagen BioRobot Universal workstation was used to purify total RNA from SJSA-1 cells treated with inhibitor and DMSO respectively. The purification procedure herein was according to RNeasy96BioRobot8000 test kit provided by Qiagen, Valencia, Calif.
To measure the level of existing p21 transcripts, QRT-PCR was introduced. The levels of p21, housekeeping genes and glyceraldehyde 3-phosphate dehydrogenase (GAPDH) were determined by the total RNA from each inhibitor- or DMSO-treated well by duplicated test. The QRT-PCR reaction was performed on the Applied Biosystems prism 7900ht instrument using the relative quantitative (ΔΔ Ct) method according to the following cycle conditions: 48° C. for 30 minutes, then 95° C. for 10 minutes, and then was 40 cycles consisting of 95° C. for 15 seconds and 60° C. for 1 minute. The data were analyzed by using Applied Biosystems SDS2.2 software, with GAPDH as inner control and DMSO treated samples as calibrators. SDS2.2 software calculated the relative quantification (RQ) or increased fold of p21 level relative to DMSO control for each treated sample. The maximum (100%) p21 induction fold was defined by the maximum value of the fitting curve of the reference compound. The p21 induction fold of each inhibitor dose tested was converted to a value representing the percentage of the maximum value. XLFit software (ID business solutions, Alameda, Calif.) was used to make dose-response curve to calculate the IC50 transit value of each inhibitor tested.

T1 sequence (Q00987 1-188): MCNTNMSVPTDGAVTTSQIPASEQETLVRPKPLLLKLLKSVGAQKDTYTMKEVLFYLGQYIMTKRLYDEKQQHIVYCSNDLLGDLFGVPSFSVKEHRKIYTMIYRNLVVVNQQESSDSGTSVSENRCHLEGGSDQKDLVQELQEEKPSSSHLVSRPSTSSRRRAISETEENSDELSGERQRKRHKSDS

Consider `CC(C)[C@@H](CS(=N)(=O)C(C)C)N1C(=O)[C@@](C)(CC(=O)NS(=O)(=O)c2ccccc2)C[C@H](c2cccc(Cl)c2)[C@H]1c1ccc(Cl)cc1` (stereo partly drawn) [Compound 020], for which the IC50 lay within 10 to 100 nM in assay [1] and 1000 to 10000 nM in assay [2] (Homo sapiens, SJSA-1, 7 h).

For the compound `CC(C)[C@@H](CS(=N)(=O)C(C)C)N1C(=O)[C@@](C)(CC(=O)Nc2ccc(F)cc2Br)C[C@H](c2cccc(Cl)c2)[C@H]1c1ccc(Cl)cc1` (stereo partly drawn) [Compound 014], the IC50 in assay [1] was over 100 nM; in assay [2] (Homo sapiens, SJSA-1, 7 h), 1000 to 10000 nM.

For the compound `CCN=S(=O)(C[C@H](C(C)C)N1C(=O)[C@@](C)(CC(=O)O)C[C@H](c2cccc(Cl)c2)[C@H]1c1ccc(Cl)cc1)C(C)C` (stereo partly drawn) [Compound 035], the 50% inhibitory concentration (IC50) in assay [1] is under 10 nM; in assay [2] (Homo sapiens, SJSA-1, 7 h), under 1000 nM.

`CC(C)[C@@H](CS(=N)(=O)C(C)C)N1C(=O)[C@@](C)(CC(=O)O)C[C@H](c2cccc(Cl)c2)[C@H]1c1ccc(Cl)cc1` (stereo partly drawn) [Compound 002]: the IC50 is under 10 nM in assay [1] and under 1000 nM in assay [2].

`CC(C)[C@@H](CS(=O)(=O)C(C)C)N1C(=O)[C@@](C)(CC(=O)NS(=N)(=O)C2(C)CC2)C[C@H](c2cccc(Cl)c2)[C@H]1c1ccc(Cl)cc1` (stereo partly drawn) [Compound 028B]: the IC50 in assay [1] lay in the range of 10 to 100 nM; in assay [2], 1000 to 10000 nM.

Regarding `CC(C)[C@@H](CS(=N)(=O)C(C)C)N1C(=O)[C@@](C)(CC(=O)Nc2ccccc2)C[C@H](c2cccc(Cl)c2)[C@H]1c1ccc(Cl)cc1` (stereo partly drawn) [Compound 015], the half-maximal inhibitory concentration (IC50) in assay [1] was 10 to 100 nM; in assay [2] (Homo sapiens, SJSA-1, 7 h) it was 1000 to 10000 nM.

For `CC(=O)N=[S@@](=O)(C[C@H](C(C)C)N1C(=O)[C@@](C)(CC(=O)O)C[C@H](c2cccc(Cl)c2)[C@H]1c1ccc(Cl)cc1)C(C)C` [Compound 039], the IC50 in assay [1] was under 10 nM; in assay [2] (Homo sapiens, SJSA-1, 7 h), under 1000 nM.

Regarding `CC(C)[C@@H](CS(=N)(=O)C(C)C)N1C(=O)[C@@](C)(CC(=O)O)C[C@H](c2cccc(Cl)c2)[C@H]1c1ccc(Cl)cc1` (stereo partly drawn) [Compound 001], the IC50 in assay [1] is under 10 nM; in assay [2] (Homo sapiens, SJSA-1, 7 h) it was under 1000 nM.

Turning to `CC(C)[C@@H](CS(=N)(=O)C(C)C)N1C(=O)[C@@](C)(CC(=O)Nc2cccc(Br)c2)C[C@H](c2cccc(Cl)c2)[C@H]1c1ccc(Cl)cc1` (stereo partly drawn) [Compound 012], the half-maximal inhibitory concentration (IC50) in assay [1] was over 100 nM; in assay [2] (Homo sapiens, SJSA-1, 7 h), 1000 to 10000 nM.

For the compound `COc1cc(NC(=O)C[C@@]2(C)C[C@H](c3cccc(Cl)c3)[C@@H](c3ccc(Cl)cc3)N([C@H](CS(=O)(=NC(=O)N(C)C)C(C)C)C(C)C)C2=O)ccc1C(=O)O` (stereo partly drawn) [Compound 049], the IC50 in assay [1] was under 10 nM; in assay [2] (Homo sapiens, SJSA-1, 7 h), under 1000 nM.

Take `CC(C)[C@@H](CS(=N)(=O)C(C)C)N1C(=O)[C@@](C)(CC(=O)Nc2cccc(C(F)(F)F)c2)C[C@H](c2cccc(Cl)c2)[C@H]1c1ccc(Cl)cc1` (stereo partly drawn) [Compound 016]: the IC50 was over 100 nM in assay [1] and 1000 to 10000 nM in assay [2] (Homo sapiens, SJSA-1, 7 h).

For the compound `CC(C)[C@@H](CS(=N)(=O)C(C)C)N1C(=O)[C@@](C)(CC(=O)NC23CCC(C(=O)O)(CC2)CC3)C[C@H](c2cccc(Cl)c2)[C@H]1c1ccc(Cl)cc1` (stereo partly drawn) [Compound 010], the IC50 in assay [1] fell in the range of 10 to 100 nM; in assay [2] (Homo sapiens, SJSA-1, 7 h), 1000 to 10000 nM.

On to `COc1cc(NC(=O)C[C@@]2(C)C[C@H](c3cccc(Cl)c3)[C@@H](c3ccc(Cl)cc3)N([C@H](CS(=O)(=NC(N)=O)C(C)C)C(C)C)C2=O)ccc1C(=O)O` (stereo partly drawn) [Compound 043], for which the half-maximal inhibitory concentration (IC50) in assay [1] was under 10 nM; in assay [2] (Homo sapiens, SJSA-1, 7 h), under 1000 nM.

Take `CCOC(=O)N=S(=O)(C[C@H](C(C)C)N1C(=O)[C@@](C)(CC(=O)O)C[C@H](c2cccc(Cl)c2)[C@H]1c1ccc(Cl)cc1)C(C)C` (stereo partly drawn) [Compound 048]: the IC50 is under 10 nM in assay [1] and under 1000 nM in assay [2] (Homo sapiens, SJSA-1, 7 h).

Take `CC(C)[C@@H](CS(=O)(=NC#N)C(C)C)N1C(=O)[C@@](C)(CC(=O)O)C[C@H](c2cccc(Cl)c2)[C@H]1c1ccc(Cl)cc1` (single isomer, unassigned) [Compound 006]: the IC50 in assay [1] is under 10 nM; in assay [2] (Homo sapiens, SJSA-1, 7 h) it was under 1000 nM.
